Results: PubChem BioAssay (NCI)
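These data come from cells grown in 96-well plates and exposed to compound for 48 hours at five concentrations. TGI marks complete inhibition of growth.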

Key:
Experiment in all cases: NCI-60 cell line screen, 48 h
[1] = test system: RXF 393 renal
[2] = test system: NCI-H460 lung
[3] = test system: UACC-257 melanoma
[4] = test system: OVCAR-3 ovarian
[5] = test system: A549 NSCLC
[6] = test system: BT-549 breast
[7] = test system: PC-3 prostate
[8] = test system: TK-10 renal
[9] = test system: MDA-MB-435
[10] = test system: MDA-N
[11] = test system: MCF7 breast
[12] = test system: M14 melanoma
[13] = test system: EKVX NSCLC
[14] = test system: SF-539 CNS
[15] = test system: HT29 colon
[16] = test system: SF-295 CNS
[17] = test system: MALME-3M melanoma
[18] = test system: IGROV1 ovarian
[19] = test system: HOP-92 NSCLC
[20] = test system: U251 CNS
[21] = test system: SK-MEL-28 melanoma
[22] = test system: SF-268 CNS
[23] = test system: RPMI-8226 leukemia
[24] = test system: OVCAR-5 ovarian
[25] = test system: 786-0 renal
[26] = test system: HCT-15 colon
[27] = test system: SK-OV-3 ovarian
[28] = test system: NCI/ADR-RES ovarian
[29] = test system: SK-MEL-2 melanoma
[30] = test system: NCI-H522 lung
[31] = test system: A498 renal
[32] = test system: HOP-62 NSCLC
[33] = test system: UACC-62 melanoma
[34] = test system: COLO 205 colon
[35] = test system: OVCAR-4 ovarian
[36] = test system: T-47D breast
[37] = test system: SW-620 colon
[38] = test system: SNB-75 CNS
[39] = test system: NCI-H23 lung
[40] = test system: OVCAR-8 ovarian
[41] = test system: K-562 leukemia
[42] = test system: HS 578T breast
[43] = test system: CAKI-1 renal
[44] = test system: UO-31 renal
[45] = test system: KM12 colon
[46] = test system: LOX IMVI melanoma
[47] = test system: SN12C renal
[48] = test system: SK-MEL-5 melanoma
[49] = test system: NCI-H226 lung
[50] = test system: ACHN renal
[51] = test system: HCT-116 colon
[52] = test system: HCC-2998 colon
[53] = test system: SNB-19 CNS
[54] = test system: MDA-MB-231 breast
[55] = test system: SR leukemia
[56] = test system: CCRF-CEM leukemia
[57] = test system: HL-60(TB) leukemia
[58] = test system: DU-145 prostate
[59] = test system: MOLT-4 leukemia

Measured: TGI

CCCCc1ccc(Nc2cc(=O)n(C)c(=O)[nH]2)cc1
72.9 µM: [11]
not listed: [55] | [56] | [57] | [58] | [59]
> 100 µM: all other assays above

CN1C2CCC1CC(CC(=O)NC(c1ccc(F)cc1)c1ccc(F)cc1)C2 (configuration not stated)
55.1 µM: [21]
33.7 µM: [12]
45.1 µM: [48]
39.4 µM: [3]
60.4 µM: [17]
89.5 µM: [55]
49 µM: [29]
6.66 µM: [57]
44.2 µM: [34]
80.6 µM: [56]
not listed: [11] | [33] | [52]
> 100 µM: all other assays above

CN1CCN([C@H]2C[C@H]3[C@@H]4CC=C5C[C@@H](N6CCCC6)CC[C@]5(C)[C@H]4CC[C@]3(C)[C@H]2O)CC1
42.8 µM: [1]
39.1 µM: [46]
47.9 µM: [57]
30.6 µM: [14]
55 µM: [10]
29.8 µM: [12]
97.8 µM: [52]
55.8 µM: [21]
39.9 µM: [48]
16.4 µM: [55]
53.6 µM: [23]
34.2 µM: [41]
35.8 µM: [17]
48.3 µM: [3]
not listed: [43] | [58]
> 100 µM: all other assays above
